Experimental data reported in ChEMBL document CHEMBL4177632.
Each block holds one compound with its values, some of them ahead of it.

What was measured:
Rattus norvegicus = organism: Rattus norvegicus; experiment: Selectivity index, ratio of IC50 for ALR1 in Wistar rat kidney to IC50 for ALR2 in Wistar rat eye lens
[1] = target: Aldo-keto reductase family 1 member B1 (Rattus norvegicus) (UniProt P07943); experiment: Inhibition of ALR2 in Wistar rat lens assessed as reduction in glucose induced-sorbitol accumulation by measuring sorbitol level at 0.1 uM preincubated for 30 mins followed by glucose addition measured after 3 hrs by resazurin dye based fluorescence assay (reference value: 803.6 +/- 104.6 nmol/g)
[2] = target: Aldo-keto reductase family 1 member B1 (Rattus norvegicus) (UniProt P07943); experiment: Inhibition of ALR2 in Wistar rat lens assessed as reduction in glucose induced-sorbitol accumulation by measuring sorbitol level at 1 uM preincubated for 30 mins followed by glucose addition measured after 3 hrs by resazurin dye based fluorescence assay (reference value: 803.6 +/- 104.6 nmol/g)
[3] = target: Aldo-keto reductase family 1 member B1 (Rattus norvegicus) (UniProt P07943); experiment: Inhibition of ALR2 in Wistar rat lens assessed as reduction in glucose induced-sorbitol accumulation by measuring sorbitol level at 100 uM preincubated for 30 mins followed by glucose addition measured after 3 hrs by resazurin dye based fluorescence assay (reference value: 803.6 +/- 104.6 nmol/g)
[4] = target: Aldo-keto reductase family 1 member B1 (Rattus norvegicus) (UniProt P07943); experiment: Inhibition of ALR2 in Wistar rat lens assessed as reduction in glucose induced-sorbitol accumulation by measuring sorbitol level preincubated for 30 mins followed by glucose addition measured after 3 hrs by resazurin dye based fluorescence assay
[5] = system: CCOC(=O)N1CCc2c(c3cc(OC)ccc3n2CC(=O)O)C1; experiment: Inhibition of recombinant human AKR1B1 assessed as Km for D,L-glyceraldehyde substrate at 80 nM (reference value: 0.065+/- 0.003 […])
[6] = system: CCOC(=O)N1CCc2c(c3cc(OC)ccc3n2CC(=O)O)C1; experiment: Inhibition of recombinant human AKR1B1 assessed as Km for D,L-glyceraldehyde substrate at 120 nM (reference value: 0.065+/- 0.003 […])

Compound: Aldo-keto reductase family 1 member B1 (Homo sapiens) (from UniProt P15121)
- Km [5]: 36 µM
- Km [6]: 22 µM

Compound: CCOC(=O)N1CCc2c(c3cc(C(=O)O)ccc3n2CC(=O)O)C1
- Ratio IC50 (Rattus norvegicus): 381

Compound: Cc1c(C=O)c2ccccc2n1CC(=O)O
- Ratio IC50 (Rattus norvegicus): 35

The next lines start with the values.

- Ratio IC50 (Rattus norvegicus): 1070
- Activity [1]: 756 nmol/g
- Activity [2]: 631 nmol/g
- Activity [3]: 184 nmol/g
- inhibition [4]: Dose-dependent effect
Compound: CC(=O)N1CCc2c(c3ccccc3n2CC(=O)O)C1

- Ratio IC50 (Rattus norvegicus): 792
- Activity [1]: 657 nmol/g
- Activity [2]: 440 nmol/g
- Activity [3]: 249 nmol/g
- inhibition [4]: Dose-dependent effect
Compound: CCOC(=O)N1CCc2c(c3cc(OC)ccc3n2CC(=O)O)C1

- Ratio IC50 (Rattus norvegicus): 131
Compound: O=C(O)Cn1c2c(c3ccccc31)CN(C(=O)C1CC1)CC2

- Ratio IC50 (Rattus norvegicus): 66
Compound: CC(=O)c1c(C)n(CC(=O)O)c2ccccc12
